In US12011444B2, “N-substituted indole derivatives as PGE2 receptor modulators” (Idorsia Pharmaceuticals Ltd, priority 2015, dated 2024):

Legend:
PTRGER4 (EP4) = PTRGER4 (EP4) (Homo sapiens (Human), UniProt P35408); assay: hEP4 b-arrestin assay (PathHunter HEK 293 PTGER4 b-arrestin cells); type: cell-based
Procedure, shortened: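 Stably transfected HEK293 cells carrying EP4–ProLink and β-arrestin 2–EA (β-gal fragment complementation), pre-incubated with compound 15 min at 37 °C, then stimulated with PGE2 (20 nM final) for 120 min at 37 °C. Chemiluminescence read after 1 h detection reagent at room temperature; activity per concentration expressed as percent of DMSO control.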

PTGER2 (EP2) = PTGER2 (EP2) (Homo sapiens (Human), UniProt P43116); assay: hEP2 b-arrestin assay (PathHunter HEK 293 PTGER2 b-arrestin cells); type: cell-based
Procedure, shortened: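 HEK293 cells expressing ProLink-tagged EP2 and EA-fused β-arrestin 2 (enzyme fragment complementation) were seeded 24 h, pre-incubated with compound 15 min at 37 °C, then stimulated with 5 μM PGE2 (final) for 120 min.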

[1] = hEP4 b-arrestin assay (values without asterisk)
[2] = hEP2 b-arrestin assay (values without asterisk)
[3] = antagonistic activity on hEP4, mean where measured multiple times
[4] = antagonistic activity on hEP2, mean where measured multiple times

Chain of PTGER2 (EP2) (P43116 whole entry, the tested form may be a part): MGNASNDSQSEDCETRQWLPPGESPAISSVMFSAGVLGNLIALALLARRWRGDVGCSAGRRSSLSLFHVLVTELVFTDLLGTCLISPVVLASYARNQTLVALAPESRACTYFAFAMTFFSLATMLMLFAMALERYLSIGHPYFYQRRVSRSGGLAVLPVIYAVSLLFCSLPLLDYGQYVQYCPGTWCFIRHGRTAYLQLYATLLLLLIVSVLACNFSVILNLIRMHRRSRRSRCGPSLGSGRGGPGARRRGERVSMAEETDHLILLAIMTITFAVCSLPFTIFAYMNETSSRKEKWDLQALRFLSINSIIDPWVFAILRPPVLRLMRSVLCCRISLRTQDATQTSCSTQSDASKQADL
Chain of PTRGER4 (EP4) (P35408 whole entry, looked up, the tested form may be a part): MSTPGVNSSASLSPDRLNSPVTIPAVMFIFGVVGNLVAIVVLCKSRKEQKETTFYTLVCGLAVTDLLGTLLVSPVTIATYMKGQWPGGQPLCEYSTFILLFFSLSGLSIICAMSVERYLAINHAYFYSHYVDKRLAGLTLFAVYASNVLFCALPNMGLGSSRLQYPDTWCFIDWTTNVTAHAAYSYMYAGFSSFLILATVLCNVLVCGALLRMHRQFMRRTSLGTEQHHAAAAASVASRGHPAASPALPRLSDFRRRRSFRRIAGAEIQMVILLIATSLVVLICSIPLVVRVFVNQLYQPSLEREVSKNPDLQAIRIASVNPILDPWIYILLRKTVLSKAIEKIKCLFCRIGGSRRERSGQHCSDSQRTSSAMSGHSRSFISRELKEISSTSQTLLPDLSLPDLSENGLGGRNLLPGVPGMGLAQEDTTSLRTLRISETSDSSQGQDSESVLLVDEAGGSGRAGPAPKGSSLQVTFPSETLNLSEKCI

Row | Compound | IC50 (PTRGER4 (EP4); [1]) [µM] | IC50 (PTGER2 (EP2); [2]) [µM] | IC50 (PTRGER4 (EP4); [3]) [µM] | IC50 (PTGER2 (EP2); [4]) [µM]
1 | CCOC(=O)C#Cc1ccc(-c2cc(NCCn3c(C#N)cc4c(OC)ccc(F)c43)ncn2)cc1OC [Example 1050, (4-{6-[2-(2-Cyano-7-fluoro-4-methoxy-indol-1-yl)-ethylamino]-pyrimidin-4-yl}-2-methoxy-phenyl)-propynoic acid ethyl ester] | 0.019 | 0.034 |  | 
2 | CCOc1cc(-c2cc(NCCn3c(C)cc4c(OC)ccc(F)c43)ncn2)sc1-c1nnn[nH]1 [Example 1051, {6-[4-Ethoxy-5-(1H-tetrazol-5-yl)-thiophen-2-yl]-pyrimidin-4-yl}-[2-(7-fluoro-4-methoxy-2-methyl-indol-1-yl)-ethyl]-amine] | 0.004 | 0.002 |  | 
3 | CCOc1cc(-c2cc(NCCn3c(C)cc4c(OC)ccc(F)c43)ncn2)sc1C(=N)NO [Example 1052, 3-Ethoxy-5-{6-[2-(7-fluoro-4-methoxy-2-methyl-indol-1-yl)-ethylamino]-pyrimidin-4-yl}-N-hydroxy-thiophene-2-carboxamidine] | 0.007 | 0.003 |  | 
4 | CCOc1cc(-c2cc(NCCn3c(C)cc4c(OC)ccc(F)c43)ncn2)sc1C(C)O (stereo not shown) [Example 1053, 1-(3-Ethoxy-5-{6-[2-(7-fluoro-4-methoxy-2-methyl-indol-1-yl)-ethylamino]-pyrimidin-4-yl}-thiophen-2-yl)-ethanol] | 0.1 | 0.01 |  | 
5 | CCOc1cc(-c2cc(NCCn3c(C)cc4c(OC)ccc(F)c43)ncn2)sc1-c1noc(=O)[nH]1 [Example 1054, 3-(3-Ethoxy-5-{6-[2-(7-fluoro-4-methoxy-2-methyl-indol-1-yl)-ethylamino]-pyrimidin-4-yl}-thiophen-2-yl)-[1,2,4]oxadiazol-5(4H)-one] | 0.001 | 0.001 |  | 
6 | COc1ccc(F)c2c1cc(C#N)n2CCNc1cc(-c2ccc(C3(F)COC3)s2)ncn1 [Example 1055, 7-Fluoro-1-(2-{6-[5-(3-fluoro-oxetan-3-yl)-thiophen-2-yl]-pyrimidin-4-ylamino}-ethyl)-4-methoxy-1H-indole-2-carbonitrile] | 0.06 | 0.249 |  | 
7 | COC(=O)N(C)c1ccc(-c2cc(NCCn3c(C#N)cc4c(OC)ccc(F)c43)ncn2)cc1 [Example 1056, (4-{6-[2-(2-Cyano-7-fluoro-4-methoxy-indol-1-yl)-ethylamino]-pyrimidin-4-yl}-phenyl)-methyl-carbamic acid methyl ester] | 0.119 | 0.12 |  | 
8 | COc1ccc(F)c2c1cc(C#N)n2CCNc1cc(-c2ccc3c(=O)[nH][nH]c(=O)c3c2)ncn1 [Example 1064, 1-{2-[6-(1,4-Dioxo-1,2,3,4-tetrahydro-phthalazin-6-yl)-pyrimidin-4-ylamino]-ethyl}-7-fluoro-4-methoxy-1H-indole-2-carbonitrile] | 0.151 | 0.025 |  | 
9 | CCNc1csc(-c2cc(NCCn3c(C)cc4c(OC)ccc(F)c43)ncn2)c1 [Example 1067, [6-(4-Ethylamino-thiophen-2-yl)-pyrimidin-4-yl]-[2-(7-fluoro-4-methoxy-2-methyl-indol-1-yl)-ethyl]-amine] | 0.067 | 0.088 |  | 
10 | CCNc1csc(-c2cc(NCCn3c(C)cc4c(C)ccc(F)c43)ncn2)c1 [Example 1068, [6-(4-Ethylamino-thiophen-2-yl)-pyrimidin-4-yl]-[2-(7-fluoro-2,4-dimethyl-indol-1-yl)-ethyl]-amine] | 0.015 | 0.01 |  | 
11 | CCNc1csc(-c2cc(NCCn3c(C)cc4c(C)cc(F)cc43)ncn2)c1 [Example 1069, [6-(4-Ethylamino-thiophen-2-yl)-pyrimidin-4-yl]-[2-(6-fluoro-2,4-dimethyl-indol-1-yl)-ethyl]-amine] | 0.041 | 0.009 |  | 
12 | CCNc1csc(-c2cc(NCCn3c(C)cc4c(OC)cc(F)cc43)ncn2)c1 [Example 1070, [6-(4-Ethylamino-thiophen-2-yl)-pyrimidin-4-yl]-[2-(6-fluoro-4-methoxy-2-methyl-indol-1-yl)-ethyl]-amine] | 0.018 | 0.01 |  | 
13 | CCN(C=O)c1csc(-c2cc(NCCn3c(C)cc4c(OC)ccc(F)c43)ncn2)c1 [Example 1071, N-Ethyl-N-(5-{6-[2-(7-fluoro-4-methoxy-2-methyl-indol-1-yl)-ethylamino]-pyrimidin-4-yl}-thiophen-3-yl)-formamide] | 0.04 | 0.023 |  | 
14 | CCOc1cc(-c2cc(NCCn3c(C)cc4c(OC)ccc(F)c43)ncn2)sc1NC=O [Example 1072, N-(3-Ethoxy-5-{6-[2-(7-fluoro-4-methoxy-2-methyl-indol-1-yl)-ethylamino]-pyrimidin-4-yl}-thiophen-2-yl)-formamide] | 0.017 | 0.003 |  | 
15 | CCOc1cc(-c2cc(NCCn3c(C)cc4c(OC)ccc(F)c43)ncn2)sc1NC(=O)CC [Example 1073, N-(3-Ethoxy-5-{6-[2-(7-fluoro-4-methoxy-2-methyl-indol-1-yl)-ethylamino]-pyrimidin-4-yl}-thiophen-2-yl)-propionamide] | 0.014 | 0.007 |  | 
16 | CCOc1cc(-c2cc(NCCn3c(C)cc4c(OC)ccc(F)c43)ncn2)sc1NC(=O)CCO [Example 1074, N-(3-Ethoxy-5-{6-[2-(7-fluoro-4-methoxy-2-methyl-indol-1-yl)-ethylamino]-pyrimidin-4-yl}-thiophen-2-yl)-3-hydroxy-propionamide] | 0.034 | 0.009 |  | 
17 | CCOc1cc(-c2cc(NCCn3c(C)cc4c(OC)ccc(F)c43)ncn2)sc1NC(N)=O [Example 1075, (3-Ethoxy-5-{6-[2-(7-fluoro-4-methoxy-2-methyl-indol-1-yl)-ethylamino]-pyrimidin-4-yl}-thiophen-2-yl)-urea] | 0.049 | 0.007 |  | 
18 | Cc1ccc(F)c2c1cc(C)n2CCNc1cc(-c2ccc(N)cc2)ncn1 [compound 1, [6-(4-Amino-phenyl)-pyrimidin-4-yl]-[2-(7-fluoro-2,4-dimethyl-indol-1-yl)-ethyl]-amine] |  |  | 0.616 | 0.05
19 | COc1nc(-c2cc(NCCn3c(C)cc4c(OC)ccc(F)c43)ncn2)cs1 [compound 2] |  |  | 0.251 | 0.267

Now from value to compound:

Row | IC50 (PTRGER4 (EP4); [1]) [µM] | IC50 (PTGER2 (EP2); [2]) [µM] | IC50 (PTRGER4 (EP4); [3]) [µM] | IC50 (PTGER2 (EP2); [4]) [µM] | Compound
20 | 0.004 | 0.01 |  |  | CCOc1cc(-c2cc(NCCn3c(C#N)cc4c(OC)ccc(F)c43)ncn2)sc1C(=O)OCCN(C)C [Example 1048, 5-{6-[2-(2-Cyano-7-fluoro-4-methoxy-indol-1-yl)-ethylamino]-pyrimidin-4-yl}-3-ethoxy-thiophene-2-carboxylic acid 2-dimethylamino-ethyl ester]
21 | 0.01 | 0.021 |  |  | CCOc1cc(-c2cc(NCCn3c(C#N)cc4c(OC)ccc(F)c43)ncn2)sc1C(=O)Oc1ccccc1 [Example 1049, 5-{6-[2-(2-Cyano-7-fluoro-4-methoxy-indol-1-yl)-ethylamino]-pyrimidin-4-yl}-3-ethoxy-thiophene-2-carboxylic acid phenyl ester]
22 | 0.009 | 0.006 |  |  | CCOc1cc(-c2cc(NCCn3c(C)c(F)c4c(OC)ccc(F)c43)ncn2)sc1C(=O)O [Example 1057, 5-{6-[2-(3,7-Difluoro-4-methoxy-2-methyl-indol-1-yl)-ethylamino]-pyrimidin-4-yl}-3-ethoxy-thiophene-2-carboxylic acid]
23 | 0.019 | 0.051 |  |  | COc1ccc(F)c2c1c(F)c(C)n2CCNc1cc(-c2cc(C(F)(F)F)c(C(=O)O)s2)ncn1 [Example 1058, 5-{6-[2-(3,7-Difluoro-4-methoxy-2-methyl-indol-1-yl)-ethylamino]-pyrimidin-4-yl}-3-trifluoromethyl-thiophene-2-carboxylic acid]
24 | 0.003 | 0.054 |  |  | COc1ccc(F)c2c1c(F)c(C#N)n2CCNc1cc(-c2cc(C(F)(F)F)c(C(=O)O)s2)ncn1 [Example 1059, 5-{6-[2-(2-Cyano-3,7-difluoro-4-methoxy-indol-1-yl)-ethylamino]-pyrimidin-4-yl}-3-trifluoromethyl-thiophene-2-carboxylic acid]
25 | 0.036 | 0.017 |  |  | COc1ccc(F)c2c1cc(C)n2CCNc1cc(-c2cc(C(F)(F)F)c(-c3nn[nH]n3)s2)ncn1 [Example 1060, [2-(7-Fluoro-4-methoxy-2-methyl-indol-1-yl)-ethyl]-{6-[5-(2H-tetrazol-5-yl)-4-trifluoromethyl-thiophen-2-yl]-pyrimidin-4-yl}-amine]
26 | 0.036 | 0.019 |  |  | COc1ccc(F)c2c1cc(C)n2CCNc1cc(-c2cc(C(F)(F)F)c(C(=N)NO)s2)ncn1 [Example 1061, 5-{6-[2-(7-Fluoro-4-methoxy-2-methyl-indol-1-yl)-ethylamino]-pyrimidin-4-yl}-N-hydroxy-3-trifluoromethyl-thiophene-2-carboxamidine]
27 | 0.013 | 0.033 |  |  | COc1ccc(F)c2c1cc(C)n2CCNc1cc(-c2cc(C(F)(F)F)c(-c3noc(=O)[nH]3)s2)ncn1 [Example 1062, 3-(5-{6-[2-(7-Fluoro-4-methoxy-2-methyl-indol-1-yl)-ethylamino]-pyrimidin-4-yl}-3-trifluoromethyl-thiophen-2-yl)-[1,2,4]oxadiazol-5(4H)-one]
28 | 0.048 | 0.003 |  |  | COc1ccc(F)c2c1cc(C)n2CCNc1cc(-c2cc(-c3ccccn3)c(C(=O)O)s2)ncn1 [Example 1066, 5-{6-[2-(7-Fluoro-4-methoxy-2-methyl-indol-1-yl)-ethylamino]-pyrimidin-4-yl}-3-pyridin-2-yl-thiophene-2-carboxylic acid]
29 | 0.039 | 0.006 |  |  | COc1ccc(F)c2c1cc(C#N)n2CCNc1cc(-c2cc3ccc(C(=O)O)cc3[nH]2)ncn1 [Example 1076, 2-(6-((2-(2-Cyano-7-fluoro-4-methoxy-1H-indol-1-yl)ethyl)amino)pyrimidin-4-yl)-1H-indole-6-carboxylic acid]
